Measured values: patent US9750242B2, “Nitrite salts as poisons in baits for omnivores” (priority 2007, dated 2017)
Read-outs that look alike come from different tables or passages of the source.

Tests used:
feral pigs [1] = settings: for Mean peak Met hb: approximate peak
Excerpt: The captive feral pig colony at Robert Wicks Pest Animal Research Centre (Queensland Department of Natural Resource, Mines and Water) was comprised of feral pigs harvested by commercial harvesters in the area surrounding Inglewood, Queensland. A variety of sexes, ages and sizes were drawn at random from the captive colony and used in these trials. Feral pigs were housed in the purpose built feral pig accommodation.
This trial occurred in January 2006. The trial design is set out in FIG. 5. Twenty-one fasted captive feral pigs were anaesthetised with ketamine (20 mgkg^−1) and xylazine (1.2 mgkg^−1) by intramuscular injection with a 16 gauge needle into the quadriceps muscle. […] The resulting liquid was then administered by oesophageal gavage to an individual feral pig. A number of sodium nitrate dosages were trialled on different groups of feral pigs. After administration, feral pigs were observed carefully for clinical signs and death. […] Each dose rate contained three feral pigs.
This was done on an identical manner to the placebo feral pigs.
Feral pigs were then sampled opportunistically at various times over the following minutes or hours. […] Feral pigs which recovered from anaesthetic quickly, or were large, were sampled less frequently than other feral pigs. All feral pigs were also blood sampled immediately after death (within 1 minute). The blood samples were used to assess Methaemoglobin levels (Met […] Hb). An automated radio-oximeter (model ABL520 supplied by Radiometer Copenhagen) was used for blood Met Hb analysis. The Met Hb data from each individual within a group was pooled to provide dose response curves for multiple feral pigs administered at a single dose rate. The feral pigs which received 135 mgkg^−1 were not blood sampled until after death. A post mortem examination was conducted on all feral pigs.
Serial Met Hb levels were pooled for each group of feral pigs receiving a single dose rate and plotted against time. Trend-lines were fitted to the data. Logarithmic functions were used for the three higher dose rates, while a polynomial trend line was fitted to the 90 mgkg^−1 feral pig group. […] This program makes few assumptions about data and consists of a range of univariate, multivariate and graphical routines for analysing matrices of samples. Specifically, ordination by multidimensional scaling (MDS) was used to visually differentiate feral pigs based on variables (time to death, peak Met haemoglobin levels, time to dyspnoea and time to vomiting). One factor was used, dose rate. Data was normalized and 30 random resets occurred. ANOSIM was used to determine whether significant differences between these variables were due to dose rate. SIMPER (a function of Primer) was used to determine dissimilarity between dose rates, or what dose rates were most dissimilar.

dingos = settings: bait delivered 1080, captive trials; cited from earlier work
feral pigs [2] = test: Bait delivery trial: sodium nitrite to feral pigs in food; assay type: in vivo, feral pig
Description: The trials were conducted in October 2005 and June 2006. Both trials were designed to test the hypothesis that SN would be lethal to feral pigs when they consumed the toxin freely in food. […] Before the toxin trial, each feral pig was pre-fed daily for 10 days with the bait substrate they were to receive during the toxin trial (bait or dry wheat). During the trial, six feral pigs acted as controls, receiving no toxin, but receiving bait substrate (carrier material). Three of these received wheat and three received the manufactured baits of the type described in Example 2. The remaining 18 feral pigs were divided into three groups of six animals. Three pigs in each group received 250 or 500 g (depending on body size and therefore total toxic dose to deliver) of wheat and the other three received one or two the baits (again, amount of toxin dependent). […] Feral pigs were observed every 15 minutes for 6 hours, then hourly for 6 hours, then at euthanasia 12 hours after clinical signs developed (if they remained alive). Each dose rate contained six animals divided evenly amongst two bait carrier materials. Six controls were used.

[3] = 44.8 kg male with profuse bleeding into the thorax
[4] = gavage, doses of 135 mgkg^-1 or above, nine feral pigs

## O=C([O-])[O-].[Na+].[Na+] [Sodium carbonate, sodium carbonate, reference compound]
Feral pigs [1]; 30 g sodium carbonate followed by 180 mgkg^-1 SN, gavage
  synergism with SN (Met Hb curves): did not appear to act as a synergist

## O=C(O)CF [Example 1080, sodium fluoroacetate]
dingos
  LD50 dose: 0.11 mg/kg

## O=NO [SN, Sodium nitrite]
Feral pigs [1]; [3]
  peak Met Hb level, individual pig: 90.1%
  time to death after gavage, individual pig: 47 min
Feral pigs [1]; 90 mgkg^-1 group
  post mortem abnormalities: no abnormalities were detected
Feral pigs [1]; all animals which died following nitrite ingestion
  post mortem abnormalities, only consistent sign: dark or chocolate coloured blood and subsequent discolouration of organs and tissues which are well vascularised
Feral pigs [1]; gavage 90 mg/kg, 14 hours post administration, two survivors
  Met Hb levels in surviving pigs: near zero
Feral pigs [1]; gavage 90 mgkg^-1
  deaths of animals dosed: one of three
  period of lethargy (lessened gradually): 4 to 6 h
Feral pigs [1]; gavage 90 mgkg^-1, 3 feral pigs
  Death/survival: 1/2
Feral pigs [1]; gavage 90 mgkg^-1, following blood sampling
  time to death of one animal after dosing: approximately 5 hours
Feral pigs [1]; gavage 90 mgkg^-1, three hours after intoxication
  vomiting: two of three animals
Feral pigs [1]; gavage 90 mgkg^-1, two from three animals assessed
  Mean peak Met hb: 55^3%
Feral pigs [1]; gavage 135 mgkg^-1
  Mean time to death: 115 ± 18 min
  Mean peak Met hb: 89 ± 6%
Feral pigs [1]; gavage 135 mgkg^-1, 3 feral pigs
  Death/survival: 3/0
Feral pigs [1]; gavage 180 mgkg^-1
  Mean time to death: 87 ± 16 min
  Mean peak Met hb: 83 ± 8%
Feral pigs [1]; gavage 180 mgkg^-1, 3 feral pigs
  Death/survival: 3/0
Feral pigs [1]; gavage 180 mgkg^-1 with Na2CO3
  Mean time to death: 52 ± 26 min
  Mean peak Met hb: 80 ± 15%
Feral pigs [1]; gavage 180 mgkg^-1 with Na2CO3 (30 g), 3 feral pigs
  Death/survival: 3/0
Feral pigs [1]; gavage >=135 mgkg^-1, close to time of death
  in-coordination, paddling and short convulsive seizures: two of nine animals
Feral pigs [1]; gavage >=135 mgkg^-1, most animals
  time to dyspnoea after gavage: 30 to 60 min
Feral pigs [1]; gavage >=135 mgkg^-1, nine animals
  vomiting: Seven animals vomited between 1-4 times
Feral pigs [1]; gavage, all feral pigs that were sampled
  effect on blood Met Hb values: rapid increases in blood Met Hb values
Feral pigs [1]; gavage, doses of 135 mgkg^-1 or above
  range of time to death: 42 to 130 min
Feral pigs [1]; [4]
  deaths: All nine feral pigs that received doses of 135 mgkg^−1 or above died
  mean time to death (S.D.): 106 ± 75 min
Feral pigs [1]; gavage, killed feral pigs
  mean peak Met Hb level in killed feral pigs: 82%
Feral pigs [2]; 135 mgkg^-1 in bait substrate, six animals
  deaths: none died
Feral pigs [2]; 270 mgkg^-1 consumed, five animals
  deaths: one of these died
Feral pigs [2]; 540 mgkg^-1 consumed in either bait substrate, 2 for each substrate
  deaths: 4/4
Feral pigs [2]; all animals
  mean time that clinical signs were displayed: 84 ± 41 min
Feral pigs [2]; all dead animals
  mean time to death (S.D.): 141 ± 49 min
Feral pigs [2]; animals receiving the full 540 mgkg^-1 dose
  mean time that clinical signs were displayed: 80 ± 51 min
Feral pigs [2]; animals that received the full 540 mgkg^-1 dose
  mean time to death (S.D.): 122 ± 49 min
Feral pigs [2]; approximately 400 mgkg^-1 in wheat (370 g of 500 g eaten)
  outcome of one animal with partial dose: still died
Common brushtail possum
  Approximate bait lethal dose: ~489 mg/kg
  Approximate gavage lethal dose: ~163 mg/kg
Common brushtail possum; body size 4 kg
  Approximate lethal SN dose: ~2.0 gm
Northern brown bandicoot
  Approximate bait lethal dose: ~696 mg/kg
  Approximate gavage lethal dose: ~232 mg/kg
Northern brown bandicoot; body size 2 kg
  Approximate lethal SN dose: ~1.4 gm
Pig
  Approximate bait lethal dose: ~310 mg/kg
  Approximate gavage lethal dose: ~103 mg/kg
Pig; body size 50 kg
  Approximate lethal SN dose: ~15.5 gm
Rat
  Approximate bait lethal dose: ~291 mg/kg
  Approximate gavage lethal dose: ~97 mg/kg
Rat; body size 0.1 kg
  Approximate lethal SN dose: ~0.03 gm
Raccoon
  Approximate bait lethal dose: ~150 mg/kg
Raccoon; body size 3 kg
  Approximate lethal SN dose: ~0.75 gm
Mouse
  Approximate bait lethal dose: ~705 mg/kg
  Approximate gavage lethal dose: ~235 mg/kg
Mouse; body size 0.03 kg
  Approximate lethal SN dose: ~0.02 gm
